Values of other authors, collected in patent publication US20220202803A1, “COMBINATION THERAPIES INCLUDING INHIBITORS OF DIHYDROOROTATE DEHYDROGENASE” (Clear Creek Bio, Inc., priority 2019, published 2022).

Key:
solid tumor malignancies = conditions: administered over a 5-day period followed by a 3-week gap or once per week for three weeks followed by a 1-week gap
mouse model of AML = conditions: daily administration of high doses

SMILES: Cc1c(-c2ccc(-c3ccccc3F)cc2)nc2ccc(F)cc2c1C(=O)O [brequinar, 6-fluoro-2-(2′-fluoro-1,1′ biphenyl-4-yl)-3-methyl-4-quinoline carboxylic acid]
- efficacy in solid tumor malignancies (solid tumor malignancies): ineffective
- adverse effects (mouse model of AML): weight loss, anemia, and thrombocytopenia
